Drawing on patent publication US20240180886A1, “INHIBITORS OF PROTEIN TYROSINE PHOSPHATASE, COMPOSITIONS, AND METHODS OF USE” (BRISTOL-MYERS SQUIBB COMPANY, priority 2022, published 2024), this text covers IC50 and EC50 for 18 compounds.

In general, IC50 refers to the point on the concentration scale where inhibition reaches its midpoint. What is called EC50 is the concentration at which the effect is half-maximal.

Molecules are shown by their SMILES.

For experiment [1], the target named is T1, PTPN2 (Homo sapiens (Human), UniProt P17706). Briefly: PhosphoSens assay (PTPN2 BCHEM). The experiment is classed as biochemical. As to conditions: substrate AQT0264 20 μM, PTPN2 150 pM. As for the experimental part: A PhosphoSens® kinase assay was performed as described by the vendor (AssayQuant Technologies, Marlborough, MA). Briefly, 1000× solutions of compounds were prepared in DMSO via serial dilution of the 10 mM DMSO stocks using 3-fold intervals in a 384-well reagent plate. 50 nL of the compound dilution series was then added to the corresponding wells of a 384-well assay plate. […] Finally, […] of 5× PTPN2 enzyme stock was added to each well of the assay plate for a final enzyme concentration of 150 pM. Reaction progress curves were collected by sampling fluorescence intensity at the excitation wavelength 360 nm (λex360) and emission wavelength 480 nm (λem480) every 71 seconds for one hour using a Synergy H4 plate reader (BioTek Instruments/Agilent Technologies, Winooski, VT) at room temperature.
Target sequence in this assay (P17706 whole entry): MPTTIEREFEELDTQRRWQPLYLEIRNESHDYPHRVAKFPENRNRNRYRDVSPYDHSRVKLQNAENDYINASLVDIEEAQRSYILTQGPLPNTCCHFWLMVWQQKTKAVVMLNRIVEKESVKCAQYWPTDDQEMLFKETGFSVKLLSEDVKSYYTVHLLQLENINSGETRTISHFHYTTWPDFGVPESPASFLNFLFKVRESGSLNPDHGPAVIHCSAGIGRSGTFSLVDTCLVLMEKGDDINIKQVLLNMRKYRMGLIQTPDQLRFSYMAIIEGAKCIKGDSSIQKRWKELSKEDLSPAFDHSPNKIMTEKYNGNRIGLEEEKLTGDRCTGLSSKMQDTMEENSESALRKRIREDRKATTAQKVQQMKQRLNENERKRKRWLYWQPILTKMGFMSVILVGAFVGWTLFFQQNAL

Experiment [2] has as its target T1, PTPN2. The experiment in a line: Phosphatase activity assay using DiFMUP as substrate. The experiment is classed as biochemical. The following applies: PTPN2 0.15 nM, 10 mM DTT. As for the experimental part: The PTPN2 biochemical assay was performed as follows, a 5× stock solution of human PTPN2 (SRP5075, MilliporeSigma, Burlington, MA) and a 1.25× stock solution of DiFMUP (D6567, ThermoFisher Scientific, Waltham, MA), were prepared in 1× reaction buffer consisting of 50 mM HEPES, pH 7.4, 1 mM EDTA, 150 mM NaCl, 0.2 mg/mL BSA, 100 U/mL catalase and 10 mM DTT. […] of the DiFMUP substrate solution, for a final concentration of […] DiFMUP substrate, was added to a Corning 3574 384-well, white, non-binding surface microtiter plate containing […] of serially diluted test compounds prepared in DMSO. The reactions were started with the addition of […] of the enzyme solution, for a final PTPN2 concentration of 0.15 nM, and monitored every 105 seconds for 60 minutes at λEX 360/λEM 460 in a BioTek Synergy HTX plate reader (Agilent Technologies, Santa Clara, CA) at room temperature. The initial linear portions of the progress curves were fit according to a linear equation to yield the slopes and converted to % inhibition based on a value of 100% activity for the no inhibitor treated control. IC50 values of each compound were obtained by fitting the % inhibition-compound concentration curves using Dotmatics software (Dotmatics, Bishops Stortford, Hertfordshire, England),
Target sequence in this assay (P17706 other isoform, or with tags, fused parts or gaps isoform P17706-2): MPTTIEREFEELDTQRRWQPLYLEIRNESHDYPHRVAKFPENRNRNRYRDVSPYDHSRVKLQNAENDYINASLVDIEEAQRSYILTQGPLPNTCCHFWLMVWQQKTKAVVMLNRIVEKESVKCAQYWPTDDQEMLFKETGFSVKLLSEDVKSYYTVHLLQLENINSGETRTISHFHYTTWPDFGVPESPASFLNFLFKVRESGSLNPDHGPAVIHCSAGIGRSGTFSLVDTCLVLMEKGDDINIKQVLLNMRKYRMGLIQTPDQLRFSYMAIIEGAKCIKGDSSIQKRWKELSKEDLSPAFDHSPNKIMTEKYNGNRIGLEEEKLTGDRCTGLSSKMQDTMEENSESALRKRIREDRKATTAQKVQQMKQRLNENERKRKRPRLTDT

Experiment [3] concerns phosphorylated STAT1 in B16-F10 cells. The experiment in a line: Phospho-STAT1 (Tyr701) HTRF assay in B16-F10 cells with IFN-gamma. The experiment is classed as cell-based. The following applies: mouse IFN-gamma 100 ng/mL, 1 hour, read-out: pSTAT1 HTRF B16F10 EC50. As for the experimental part:
B16-F10 cells (ATCC, Manassas, VA, #CRL-6475) were cultured in DMEM growth medium (ThermoFisher Scientific, Waltham, MA, #11995-040) supplemented with 10% heat-inactivated FBS (ThermoFisher Scientific, #16140-071) and 1% pen/strep (ThermoFisher Scientific, #15140-122). The cells were seeded into a white opaque 384-well tissue culture treated microplate (PerkinElmer, Waltham, MA, #6007688) at a density of 10,000 cells/well in 20 uL total volume and incubated overnight at 37 C and 5% CO2. 30 nL of compounds dissolved in DMSO were then transferred from a source plate into target wells with the Echo650 acoustic liquid handler (Beckman Coulter, Indianapolis, IN). Negative control wells received 30 nL of DMSO only (0.15% final concentration). Plates were returned to the incubator for 1 hour and then cells were treated with either 5 uL of growth medium or 5 uL of growth medium containing 500 ng/mL of recombinant mouse IFN-gamma protein (R&D Systems, Minneapolis, MN, #485-MI/CF, 100 ng/mL final concentration) using the Assist automated pipetting platform (INTEGRA Biosciences, Hudson, NH). Plates were incubated at 37 C for 1 hour and assayed for phosphorylated STAT1 protein levels with the phospho-STAT1 (Tyr701) HTRF kit (Cisbio, Bedford, MA, #63ADK026PEH) according to the manufacturer's instructions.
(In general: TR-FRET usually uses a lanthanide donor and a delayed reading to cut background.)

In a further experiment the test system is B16-F10 cells. Briefly: Cell proliferation assay (CellTiter-Glo) in B16-F10 cells with IFN-gamma. The experiment is classed as cell-based. The following applies: 120 h, mouse IFN-gamma 10 ng/mL, read-out: PTPN2 Prolif 5d B16F10 EC50.

Regarding `Cc1cc(C)nc(NCc2cc(O)c(N3CC(=O)NS3(=O)=O)c(F)c2)c1` [EXAMPLE 5, 5-[4-[[(4,6-dimethyl-2-pyridyl)amino]methyl]-2-fluoro-6-hydroxy-phenyl]-1,1-dioxo-1,2,5-thiadiazolidin-3-one], the IC50 on PTPN2 [1] and at PTPN2 [2] was 1 nM each time. The figures for the EC50 (in experiment [3]; in the experiment with B16-F10 cells) were 30 nM and 50 nM, respectively.

`O=C1CN(c2c(O)cc(CNc3cc(OC4CC4)ccn3)cc2F)S(=O)(=O)N1` [EXAMPLE 6, 5-[4-[[[4-(cyclopropoxy)-2-pyridyl]amino]methyl]-2-fluoro-6-hydroxy-phenyl]-1,1-dioxo-1,2,5-thiadiazolidin-3-one]: the IC50 on PTPN2 [1] was 3 nM; on PTPN2 [2] it was 10 nM. Besides, the values for the EC50 (in experiment [3]; in the experiment on B16-F10 cells) were 140 nM and 170 nM, respectively.

On to `Cc1ccnc(NCc2cc(O)c(N3CC(=O)NS3(=O)=O)c(F)c2)c1` [EXAMPLE 7, 5-[2-fluoro-6-hydroxy-4-[[(4-methyl-2-pyridyl)amino]methyl]phenyl]-1,1-dioxo-1,2,5-thiadiazolidin-3-one], for which the figures for the IC50 on PTPN2 [1] and at PTPN2 [2] were 5 nM and 3 nM, respectively. The EC50 worked out at 180 nM in experiment [3] and 170 nM in the experiment with B16-F10 cells.

For `O=C1CN(c2c(O)cc(CNc3ccc(-c4ccccc4)cn3)cc2F)S(=O)(=O)N1` [EXAMPLE 8, 5-[2-fluoro-6-hydroxy-4-[[(5-phenyl-2-pyridyl)amino]methyl]phenyl]-1,1-dioxo-1,2,5-thiadiazolidin-3-one], the IC50 at PTPN2 [1] is 50 nM; at PTPN2 [2], 950 nM. Besides, the figures for the EC50 (in experiment [3]; in the experiment with B16-F10 cells) were 3930 nM and 6250 nM, respectively.

Consider `COc1cc(NCc2cc(O)c(N3CC(=O)NS3(=O)=O)c(F)c2)ncc1C` [EXAMPLE 9, 5-[2-fluoro-6-hydroxy-4-[[(4-methoxy-5-methyl-2-pyridyl)amino]methyl]phenyl]-1,1-dioxo-1,2,5-thiadiazolidin-3-one], for which the IC50 on PTPN2 [1] and at PTPN2 [2] was 4 nM in each case. The results for the EC50 (in experiment [3]; in the experiment on B16-F10 cells) were 70 nM and 120 nM, respectively.

In the case of `O=C1CN(c2c(O)cc(CNc3ccc(C4CC4)cn3)cc2F)S(=O)(=O)N1` [EXAMPLE 10, 5-[4-[[(5-cyclopropyl-2-pyridyl)amino]methyl]-2-fluoro-6-hydroxy-phenyl]-1,1-dioxo-1,2,5-thiadiazolidin-3-one], the IC50 amounted to 3 nM at PTPN2 [1] and 40 nM at PTPN2 [2]. Besides, the EC50 in experiment [3] was 570 nM; with B16-F10 cells it was 610 nM.

For the compound `N#Cc1ccnc(NCc2cc(O)c(N3CC(=O)NS3(=O)=O)c(F)c2)c1` [EXAMPLE 11, 2-[[3-fluoro-5-hydroxy-4-(1,1,4-trioxo-1,2,5-thiadiazolidin-2-yl)phenyl]methylamino]pyridine-4-carbonitrile], the IC50 on PTPN2 [1] was 40 nM; at PTPN2 [2], 100 nM. Moreover, the figures for the concentration giving a half-maximal response (EC50) (in experiment [3]; with B16-F10 cells) were 1990 nM and 3130 nM, respectively.

For the compound `COc1ccnc(NCc2cc(O)c(N3CC(=O)NS3(=O)=O)c(F)c2)c1` [EXAMPLE 12, 5-[2-fluoro-6-hydroxy-4-[[(4-methoxy-2-pyridyl)amino]methyl]phenyl]-1,1-dioxo-1,2,5-thiadiazolidin-3-one], the IC50 at PTPN2 [1] and on PTPN2 [2] was 10 nM throughout. Moreover, the values for the EC50 (in experiment [3]; in the experiment on B16-F10 cells) were 90 nM and 140 nM, respectively.

For `CCc1ccnc(NCc2cc(O)c(N3CC(=O)NS3(=O)=O)c(F)c2)c1` [EXAMPLE 13, 5-[4-[[(4-ethyl-2-pyridyl)amino]methyl]-2-fluoro-6-hydroxy-phenyl]-1,1-dioxo-1,2,5-thiadiazolidin-3-one], the figures for the IC50 at PTPN2 [1] and at PTPN2 [2] were 2 nM and 6 nM, respectively. Further, the EC50 is 260 nM in experiment [3] and 230 nM in the experiment with B16-F10 cells.

Consider `Cc1ccc(NCc2cc(O)c(N3CC(=O)NS3(=O)=O)c(F)c2)nc1` [EXAMPLE 14, 5-[2-fluoro-6-hydroxy-4-[[(5-methyl-2-pyridyl)amino]methyl]phenyl]-1,1-dioxo-1,2,5-thiadiazolidin-3-one], for which the IC50 on PTPN2 [1] and at PTPN2 [2] was 10 nM throughout. Also, the EC50 is 750 nM in experiment [3] and 610 nM with B16-F10 cells.

As to `Cc1cccnc1NCc1cc(O)c(N2CC(=O)NS2(=O)=O)c(F)c1` [EXAMPLE 15, 5-[2-fluoro-6-hydroxy-4-[[(3-methyl-2-pyridyl)amino]methyl]phenyl]-1,1-dioxo-1,2,5-thiadiazolidin-3-one], the IC50 is 110 nM on PTPN2 [1] and 460 nM on PTPN2 [2]. The EC50 in experiment [3] amounted to 5020 nM; in the experiment with B16-F10 cells, 6480 nM.

Regarding `O=C1CN(c2c(O)cc(CNc3cc(F)ccn3)cc2F)S(=O)(=O)N1` [EXAMPLE 16, 5-[2-fluoro-4-[[(4-fluoro-2-pyridyl)amino]methyl]-6-hydroxy-phenyl]-1,1-dioxo-1,2,5-thiadiazolidin-3-one], the figures for the IC50 at PTPN2 [1] and at PTPN2 [2] were 20 nM and 200 nM, respectively. For the same compound, the EC50 in experiment [3] was determined as 1240 nM; in the experiment on B16-F10 cells it was 1030 nM.

Take `Cc1cccc(NCc2cc(O)c(N3CC(=O)NS3(=O)=O)c(F)c2)n1` [EXAMPLE 17, 5-[2-fluoro-6-hydroxy-4-[[(6-methyl-2-pyridyl)amino]methyl]phenyl]-1,1-dioxo-1,2,5-thiadiazolidin-3-one]: the values for the IC50 on PTPN2 [1] and at PTPN2 [2] were 1 nM and 4 nM, respectively. Further, the results for the EC50 (in experiment [3]; with B16-F10 cells) were 80 nM and 160 nM, respectively.

Turning to `Cc1ccc(NCc2cc(O)c(N3CC(=O)NS3(=O)=O)c(F)c2)nc1C` [EXAMPLE 19, 5-[4-[[(5,6-dimethyl-2-pyridyl)amino]methyl]-2-fluoro-6-hydroxy-phenyl]-1,1-dioxo-1,2,5-thiadiazolidin-3-one], the values for the IC50 at PTPN2 [1] and at PTPN2 [2] were 2 nM and 5 nM, respectively. Further, the EC50 was 310 nM in experiment [3] and 190 nM with B16-F10 cells.

As for `Cc1ccc(C)c(NCc2cc(O)c(N3CC(=O)NS3(=O)=O)c(F)c2)n1` [EXAMPLE 20, 5-[4-[[(3,6-dimethyl-2-pyridyl)amino]methyl]-2-fluoro-6-hydroxy-phenyl]-1,1-dioxo-1,2,5-thiadiazolidin-3-one], the IC50 on PTPN2 [1] was 80 nM; at PTPN2 [2], 190 nM. The results for the EC50 (in experiment [3]; with B16-F10 cells) were 3600 nM and 3950 nM, respectively.

For the compound `COc1ccc(C)nc1NCc1cc(O)c(N2CC(=O)NS2(=O)=O)c(F)c1` [EXAMPLE 22, 5-[2-fluoro-6-hydroxy-4-[[(3-methoxy-6-methyl-2-pyridyl)amino]methyl]phenyl]-1,1-dioxo-1,2,5-thiadiazolidin-3-one], the IC50 on PTPN2 [1] is 80 nM; on PTPN2 [2] it was 170 nM. Also, the EC50 came to 2970 nM in experiment [3] and 2470 nM in the experiment with B16-F10 cells.

Take `CCc1cccnc1NCc1cc(O)c(N2CC(=O)NS2(=O)=O)c(F)c1` [EXAMPLE 23, 5-[4-[[(3-ethyl-2-pyridyl)amino]methyl]-2-fluoro-6-hydroxy-phenyl]-1,1-dioxo-1,2,5-thiadiazolidin-3-one]: the results for the IC50 on PTPN2 [1] and on PTPN2 [2] were 30 nM and 510 nM, respectively. Moreover, the figures for the EC50 (in experiment [3]; with B16-F10 cells) were 1510 nM and 14100 nM, respectively.

For the compound `Cc1cnc(NCc2cc(O)c(N3CC(=O)NS3(=O)=O)c(F)c2)c(C)c1` [EXAMPLE 24, 5-[4-[[(3,5-dimethyl-2-pyridyl)amino]methyl]-2-fluoro-6-hydroxy-phenyl]-1,1-dioxo-1,2,5-thiadiazolidin-3-one], the IC50 was found to be 100 nM at PTPN2 [1] and 80 nM at PTPN2 [2]. In addition, the values for the EC50 (in experiment [3]; in the experiment with B16-F10 cells) were 5400 nM and 4560 nM, respectively.
